In ChEMBL document CHEMBL1126438, “DNA alkylation properties of the duocarmycins: (+)-duocarmycin A, epi-(+)-duocarmycin A, ent-()-duocarmycin A and epi,ent-()-duocarmycin A” (Bioorg Med Chem Lett, 1992):
≈ marks a conversion by molar mass, not a printed value.

Columns and labels:
B16 = assay: In vitro evaluation for cytotoxicity against B16 melanoma.; format: functional, cell-based; conditions: Mus musculus
L1210 = assay: In vitro evaluation for cytotoxicity against L1210 cell line; format: functional, cell-based; conditions: Mus musculus
P388 = assay: In vitro evaluation for cytotoxicity against P388 murine leukemia cell line; format: functional, cell-based, Mus musculus
[1] = Mus musculus, P388, read-out: IC50

| SMILES | IC50 (B16) | IC50 (L1210) | IC50 (P388; [1]) | IC50 (P388; p388) |
| --- | --- | --- | --- | --- |
| COC(=O)[C@@]1(C)N=C2C(=O)C=C3N(C(=O)c4cc5cc(OC)c(OC)c(OC)c5[nH]4)C[C@H]4C[C@@]34C2=C1O | 0.8 ng/mL (≈ 1.58 nM) | 0.8 ng/mL (≈ 1.58 nM) | 0.007 ng/mL (≈ 0.0138 nM) |  |
| COC(=O)[C@]1(C)N=C2C(=O)C=C3N(C(=O)c4cc5cc(OC)c(OC)c(OC)c5[nH]4)C[C@@H]4C[C@]34C2=C1O | > 3 ng/mL | > 12 ng/mL | ≥ 0.3 ng/mL |  |
| COC(=O)[C@@]1(C)N=C2C(=O)C=C3N(C(=O)c4cc5cc(OC)c(OC)c(OC)c5[nH]4)C[C@@H]4C[C@]34C2=C1O | > 3 ng/mL | > 11 ng/mL | ≥ 0.3 ng/mL |  |
| COC(=O)[C@]1(C)N=C2C(=O)C=C3N(C(=O)c4cc5cc(OC)c(OC)c(OC)c5[nH]4)C[C@H]4C[C@@]34C2=C1O | 0.2 ng/mL (≈ 0.394 nM) | 0.1 ng/mL (≈ 0.197 nM) |  | 0.002 ng/mL (≈ 0.00394 nM) |
